PubChem BioAssay (NCI)
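Following 48 hours of exposure in 96-well plates, responses at five concentrations were used to interpolate endpoints linearly. GI50: concentration for 50% inhibition of growth. At the TGI there is no net growth.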

Columns and labels:
Assay in all cases: DTP human tumour cell line panel, 48 h
HOP-92 NSCLC = system: HOP-92 NSCLC
SNB-19 CNS = system: SNB-19 CNS
SK-MEL-28 melanoma = system: SK-MEL-28 melanoma
NCI-H23 lung = system: NCI-H23 lung
HCT-116 colon = system: HCT-116 colon
HOP-62 NSCLC = system: HOP-62 NSCLC
UACC-257 melanoma = system: UACC-257 melanoma
SF-539 CNS = system: SF-539 CNS
IGROV1 ovarian = system: IGROV1 ovarian
HT29 colon = system: HT29 colon
UO-31 renal = system: UO-31 renal
PC-3 prostate = system: PC-3 prostate
MDA-N = system: MDA-N
HS 578T breast = system: HS 578T breast
MDA-MB-231 breast = system: MDA-MB-231 breast

Structure (SMILES)	TGI (HOP-92 NSCLC) [µM]	TGI (SNB-19 CNS) [µM]	TGI (SK-MEL-28 melanoma) [µM]	TGI (NCI-H23 lung) [µM]	TGI (HCT-116 colon) [µM]	TGI (HOP-62 NSCLC) [µM]	TGI (UACC-257 melanoma) [µM]	TGI (SF-539 CNS) [µM]	TGI (IGROV1 ovarian) [µM]	TGI (HT29 colon) [µM]	TGI (UO-31 renal) [µM]	TGI (PC-3 prostate) [µM]	TGI (MDA-N) [µM]	TGI (HS 578T breast) [µM]	TGI (MDA-MB-231 breast) [µM]	GI50 (HOP-92 NSCLC) [µM]	GI50 (SNB-19 CNS) [µM]	GI50 (HOP-62 NSCLC) [µM]	GI50 (SF-539 CNS) [µM]
O=C1c2ccccc2OP(=O)(OCC(F)(F)F)OC1(C(F)(F)F)C(F)(F)F (configuration not stated)	> 100	> 100	> 100	> 100	> 100	> 100	> 100	> 100	> 100	> 100	> 100	–	–	–	–	–	–	–	–
CC[C@@H]1CC[C@@H]2[C@H](CC[C@]3(C)[C@@H](OS(=O)(=O)c4ccc(C)cc4)CC[C@@H]23)[C@H]1COS(=O)(=O)c1ccc(C)cc1	> 100	> 100	> 100	–	> 100	–	> 100	> 100	> 100	> 100	> 100	> 100	> 100	> 100	–	–	–	–	–
COc1ccc(N=Cc2ccc(N(CCC#N)S(=O)(=O)c3ccccc3)cc2)cc1	> 100	> 100	> 100	> 100	> 100	> 100	> 100	> 100	> 100	> 100	> 100	–	–	–	–	–	–	–	–
C=CCC(N(C)C(=O)[C@H](Cc1ccccc1)NC(=O)OCc1ccccc1)P(=O)(Oc1ccccc1)Oc1ccccc1 (some centres not stated)	> 100	> 100	> 100	> 100	> 100	> 100	> 100	> 100	> 100	> 100	> 100	–	–	–	–	–	–	–	–
O=C(NCCNCCCNC(=O)c1cc(-c2ccccc2)nc2ccccc12)c1cccc(O)c1O	62.9	11.8	18.5	37.8	28.5	15.9	18.5	11.6	28.9	22.2	14.9	> 100	–	> 100	> 100	–	–	–	–
N#Cc1c(-c2ccc([N+](=O)[O-])cc2)c(C#N)c(=O)n(NS(=O)(=O)c2ccccc2)c1-c1ccccc1	> 100	> 100	> 100	–	> 100	> 100	> 100	> 100	> 100	> 100	–	> 100	–	> 100	> 100	–	–	–	–
COc1cccc([C@H]2C/C(=N\NC(=O)C(=O)N[C@@H](C)c3ccccc3)c3ccccc3N2)c1	> 100	> 100	> 100	–	12	–	> 100	21.3	–	–	> 100	> 100	–	0.088	41.4	0.422	0.0259	0.0835	0.0208
CCOC(=O)/C=C/n1c2ccccc2c(=O)c2ccccc21	–	> 100	> 100	> 100	> 100	> 100	> 100	> 100	> 100	> 100	> 100	–	–	–	–	–	–	–	–
CN(C)C(=S)/N=c1\ssc(=S)n1Cc1cccnc1	> 100	> 100	> 100	> 69.6	> 100	> 100	> 95.5	> 100	> 100	> 49.5	> 100	> 100	–	> 100	> 100	–	–	–	–
CCOc1ccc(/C(Cl)=C(\C=O)c2ccc(OC)c(OC)c2)cc1OCC	> 100	> 100	> 100	> 100	> 100	> 100	> 100	> 100	> 100	> 100	> 100	–	–	–	–	–	–	–	–
Cc1ccc(NC2=CC(=O)C(NO)c3ccccc32)cc1 (configuration not stated)	8.25	11.5	29.5	4.22	8.77	14.6	3.84	8.8	4.6	17.1	12.2	–	6.75	–	7.12	–	–	–	–
CC[C@]1(Cc2ccc(OC)c(OC)c2)C=[N+]([O-])O[C@H](OC2CCCC2(c2ccccc2)c2ccccc2)[C@@H]1OC(C)=O (some centres not stated)	54.7	18.5	4.81	19.9	6.16	29.4	19.2	–	10.6	4.55	12.6	18.4	–	46.5	> 41.3	–	–	–	–
CC1=NN(c2nc(N)nc(CSc3nc4n(c(=S)n3)CCN4)n2)C(C)(C)C1	44.3	> 100	> 100	> 100	> 100	27.9	> 100	> 100	51.5	> 100	–	> 100	–	41.3	> 100	–	–	–	–
CC(C)CC(NC(=O)OC(C)(C)C)C(=O)Nc1ccc(Nc2nc(F)nc(-c3c4ccccc4c4n3CCS4)n2)cc1 (configuration not stated)	34.4	36.9	42.7	33.1	46	37.2	48.3	37.7	42.3	34.8	34.8	–	–	–	–	–	–	–	–
Cc1cc(N(CCC#N)CCC#N)ccc1/C(N=Nc1ccc(C(=O)O)cc1)=N\NC(=O)c1cc(Cl)ccc1O	–	55.9	–	> 100	> 100	65.4	> 100	–	59	> 100	68	> 100	–	47.1	63.1	–	–	–	–
CCCCc1ccc(Nc2nc(SC)c3[nH]cnc3n2)cc1	> 100	> 100	> 100	> 100	> 100	57.7	> 100	> 100	> 100	> 100	> 100	> 100	–	> 100	> 100	–	–	–	–
CCC12CCCN(Cc3ccccc3)C1c1c(n(C)c3ccccc13)C(C(=O)OC)C2 (configuration not stated)	> 239	> 239	> 239	> 239	> 239	> 239	191	> 239	> 239	> 239	–	–	–	–	–	–	–	–	–
Cc1cc2c(cc1Cl)S(=O)(=O)OC(c1ccc([N+](=O)[O-])cc1)=N2	> 100	> 100	> 100	–	> 100	> 100	> 100	> 100	> 100	> 100	> 100	> 100	–	> 100	> 100	–	–	–	–
Nc1nc(SCc2ccc([N+](=O)[O-])cc2)nc2c1ncn2C1OC(CO)C(O)C1O (configuration not stated)	–	> 100	> 100	> 100	> 100	> 100	> 100	–	> 100	> 100	> 100	–	–	–	–	–	–	–	–
COC(=O)CC1NC(=O)[C@@H]1C(C)O (some centres not stated)	–	> 100	> 100	–	> 100	> 100	> 100	> 100	> 100	> 100	> 100	–	–	–	–	–	–	–	–
CN1CNc2nc(N)n(C)c(=O)c2C1	> 10	> 10	–	> 10	–	–	> 10	> 10	> 10	> 10	> 10	–	> 10	–	–	–	–	–	–
COc1cc2c(cc1OCCCCN1C(=O)c3cccc4cccc(c34)C1=O)N=C[C@@H]1CCCN1C2=O	> 45.8	> 52.3	38.2	11.5	14	33.6	37.7	7.1	6.01	18.8	3.4	> 70.3	–	–	29.4	–	–	–	–
CCOP(=O)(OCC)C(Nc1ccc(Br)cc1)c1cccc([N+](=O)[O-])c1 (configuration not stated)	42.2	47.6	60	53	25.6	39.8	–	45.6	76.5	34.3	22.7	–	37.2	61.1	43.2	–	–	–	–
CCCCCCCCCCCCCCCCOCC(CC(F)(F)P(=O)(OCC)OCC)OC(C)=O (configuration not stated)	23.1	15.8	32.4	34.6	17	–	33	–	21.8	35.5	29.5	26.7	31.6	–	30.1	–	–	–	–
CN(C)C(=S)/N=c1\ssc(=S)n1Cc1ccccc1	7.63	> 56.2	> 63.1	24.8	29.6	20.7	> 56.2	1.49	> 46.4	11.7	54	35.5	1.21	–	42.6	–	–	–	–
Cc1ccc(N2C(=O)CS/C2=C(\C#N)c2nc3ccccc3[nH]2)cc1	> 100	> 100	> 100	> 100	> 100	> 100	> 100	> 100	> 100	–	> 100	–	–	–	–	–	–	–	–
N#C/C(c1nc2ccccc2[nH]1)=c1\s/c(=C/c2ccc(Cl)cc2)c(=O)n1-c1ccccc1	> 100	> 100	> 100	> 100	> 100	> 100	> 100	> 100	> 100	–	> 100	–	–	–	–	–	–	–	–
